Patent US9849145B2, “Pharmaceutical composition containing honeysuckle extract and antibiotics, pharmaceutical kit, and use of honeysuckle extract for preparation of drug” (priority 2011, dated 2017)
Where “and” joins values, the source holds several entries; their conditions need not be identical. Equal entries are not always repeated.

Key:
AMP-sensitive strain = assay: AMP-sensitive bacterium infection model in mice (quality control); assay type: in vivo, KM mice; conditions: for protection / control of infection by AMP alone (in words): AMP-sensitive bacterium infection model-AMP intervention control group
Excerpt: The control strain is clinically isolated AMP-sensitive strain, which was isolated from the sputum specimen of the patient in the ward of the Fourth People's Hospital of Jinan in 2010, and preserved until today.
(§1) KM mice were purchased from the Experimental Animal Center of Shandong University, weighing 16-18 g, with half male and half female and animal license number of SCXK (Lu) 20090001.
(§2) There were 5 control groups with 10 mice in each group: normal control group, AMP-sensitive bacterium quality control model control group (AMPS) and the treatment group thereof, AMP-resistant bacterium model control group (AMPR) and the treatment group thereof;
(§3) After being grouped, the animals were injected intraperitoneally with 2.5×10^7 (Klebsiella pneumoniae)*100 μL^−1 per animal, then immediately treated by administration, and the route of administration alternated between tail intravenous injection and intraperitoneal injection (the sterile normal saline was used as the solvent for drugs except W, since continuous tail intravenous injection causes damage to tail veins, therefore the tail intravenous injection and intraperitoneal injection were performed alternatively), the animal was injected once a day for 5 days continuously. The efficacy of each group was evaluated according to the animal mortality and intraperitoneal bacterial count.
(§4) Intraperitoneal bacterium counting of dead animals: the animals were injected intraperitoneally with 1 ml sterile normal saline immediately after they died, and the abdomens of the animals were kneaded gently for 1 min, the ascites was drawn and coated on the plate after gradient dilution, and cultured at 37° C. overnight, then the colonies were counted;
(§5) Intraperitoneal bacterium counting of surviving animals: the mice were administrated continuously for 5 days and sacrificed through dislocation 2 h after the last administration, then the mice were injected intraperitoneally with 1 ml sterile normal saline, and the abdomens of the mice were kneaded gently for 1 min, the ascites was drawn and coated on the plate after gradient dilution, and cultured at 37° C. overnight, then the colonies were counted, colony count results of the control groups are shown in table 9 below, and colony count results of the experimental groups are shown in table 10 below.

Escherichia coli = tested on: Escherichia coli; parameters: key: Resistant; Sensitive; Intermediate degree (moderate resistance); conditions: clinical isolate, specimen 32042, urine; cited from earlier work
Klebsiella pneumoniae [1] = assay: Bacterial inhibition test of antibiotics, Klebsiella pneumoniae; assay type: cell-based; conditions: 2-fold dilutions from 1 mg/mL to 1:2048; 37° C. 20 h; 630 nm
Method: In this example, bacterial inhibition effects of antibiotics on the four multiple resistant bacteria in Tables 1-4 were measured.
The activated bacterium suspension was diluted to a concentration equivalent to 0.5 McFarland turbidity standard, and diluted with the culture medium of MH broth in a proportion of 1:1000, and then added into each well in amount of 100 μL per well.
The antibiotics resisted by the above four multiple resistant bacteria were diluted to 1:2048 (2^−11) from 1 mg/mL (initial concentration) by 2-fold dilution, and then the original solution and different concentrations of diluted antibiotics were added respectively into the well containing the bacterium suspension, with each well added with 100 μL, and the minimum inhibitory concentration (MIC) of each antibiotic was recorded finally.
Meanwhile, a bacterium solution control (that is, bacterium solution plus an equal volume of culture medium) and a blank culture medium control were set.
Cultivation was performed at 37° C. for 20 h, and detection was performed at 630 nm by the microplate reader, and the bacterial inhibition rate is calculated according to formula (2), and the data obtained is put into formula (1) to calculate specific distance, and the specific distance is added to the virus dilution index with pathologic rate less than 50% to obtain half inhibitory concentration (Reed-Muench method). […]

Pseudomona aeruginosa = tested on: Pseudomona aeruginosa; parameters: key: Resistant; Sensitive; Intermediate degree (moderate resistance); conditions: clinical isolate, specimen 12; cited from earlier work
Klebsiella pneumoniae [2] = tested on: Klebsiella pneumoniae; parameters: key: Resistant; Sensitive; Intermediate degree (moderate resistance); conditions: clinical isolate, specimen 31853, urine; cited from earlier work
Klebsiella pneumoniae [3] = tested on: Klebsiella pneumoniae; parameters: key: Resistant; Sensitive; Intermediate degree (moderate resistance); conditions: clinical isolate, specimen 31494, sputum; cited from earlier work
[4] = tested on: AMP-resistant Klebsiella pneumoniae; assay: AMP-resistant bacterium infection model in mice (mortality, intraperitoneal colony count); assay type: in vivo, KM mice; conditions: for protection / control of infection by AMP alone (in words): AMP-resistant bacterium infection model-AMP intervention control group
Excerpt: This example studies the antimicrobial effects in vivo of the honeysuckle extracts N1 to N4 which are respectively combined with antibiotics, and the antimicrobial effects were compared with that of the honeysuckle water decoction W combined with the antibiotic.
The experimental strain is Klebsiella pneumoniae which was isolated from the sputum specimen of the patient in the ward of the Fourth People's Hospital of Jinan in 2010, and detection of the drug resistant spectrum is shown in Table 6 below.
as §1, §2
There were 15 experimental groups with 10 mice in each group: N1 to N4 and W were respectively combined with AMP high-dose group, AMP medium-dose group and AMP low-dose group.
as §3, §4, §5

[5] = AMP-sensitive bacterium model, AMP 16.80 mg per mouse alone, n = 10
[6] = AMP intervention control group: AMP 16.80 mg per mouse alone, n = 10

Question: Which “protection / control of infection by AMP alone (in words)” value (“protection / control of infection” below) (AMP-sensitive strain) does the source give for `CC1(C)S[C@@H]2[C@H](NC(=O)[C@H](N)c3ccccc3)C(=O)N2[C@H]1C(=O)O` [AMP, ampicillin] here?
Answer: Its value is “protected effectively”.

Question: What about the “protection / control of infection” value (AMP-sensitive strain; listed as ampicillin) of the same compound?
Answer: Its value is “sensitive to ampicillin”.

Question: What about the “Mortality (%)” value (AMP-sensitive strain; [5]) of the same compound?
Answer: Its value is 0%.

Question: What about the “Number of deaths 1st day” value (AMP-sensitive strain; [5]) of the same compound?
Answer: Its value is 0.

Question: What about the “Number of deaths 2nd day” value (AMP-sensitive strain; [5]) of the same compound?
Answer: Its value is 0.

Question: And the “Number of deaths 3rd day” value (AMP-sensitive strain; [5])?
Answer: Its value is 0.

Question: And the “Number of deaths 4th day” value (AMP-sensitive strain; [5])?
Answer: The value was 0.

Question: What about the “Number of deaths 5th day” value (AMP-sensitive strain; [5]) of the same compound?
Answer: The value was 0.

Question: What about the “Number of deaths Total” value (AMP-sensitive strain; [5]) of the same compound?
Answer: The value was 0.

Question: And the “Bacterium isolation positive rate (%)” value (AMP-sensitive strain; AMPS model, AMP 16.80 mg per mouse alone)?
Answer: The value was 10%.

Question: And the “Intraperitoneal colony count of animals” value (AMP-sensitive strain; AMPS model, AMP 16.80 mg per mouse alone, one value per mouse Nos. 1-10, unit not given in Table 9 (Table 10 note: CFU/mL))?
Answer: Its value is 1.054 × 10^1 and 0 (9×).

Question: And the “resistance of Escherichia coli to the antibiotic” value (Escherichia coli)?
Answer: The value was “R”.

Question: What about the “bacterial inhibition effect of the antibiotic” value (Klebsiella pneumoniae [1]) of the same compound?
Answer: Its value is “inhibitory effect on Klebsiella pneumoniae in the first two dilutions (1 mg/mL, 0.5 mg/mL)”.

Question: What about the “resistance of Pseudomona aeruginosa to the antibiotic” value (Pseudomona aeruginosa) of the same compound?
Answer: The value was “R”.

Question: What about the “resistance of Klebsiella pneumoniae to the antibiotic” value (Klebsiella pneumoniae [2]) of the same compound?
Answer: The value was “R”.

Question: And the “drug resistant spectrum of the experimental strain of Klebsiella pneumoniae” value (Klebsiella pneumoniae [3])?
Answer: The value was “R”.

Question: And the “Mortality (%)” value [4, 6]?
Answer: Its value is 100%.

Question: What about the “Number of deaths 1st day” value [4, 6] of the same compound?
Answer: Its value is 0.

Question: And the “Number of deaths 2nd day” value [4, 6]?
Answer: The value was 7.

Question: And the “Number of deaths 3rd day” value [4, 6]?
Answer: The value was 2.

Question: What about the “Number of deaths 4th day” value [4, 6] of the same compound?
Answer: The value was 1.

Question: What about the “Number of deaths 5th day” value [4, 6] of the same compound?
Answer: Its value is 0.

Question: And the “Number of deaths Total” value [4, 6]?
Answer: Its value is 10.

Question: What about the “protection / control of infection” value [4] of the same compound?
Answer: The value was “cannot be protected (all of animals died)”.

Question: What about the “protection / control of infection” value ([4]; listed as ampicillin) of the same compound?
Answer: The value was “cannot be controlled by ampicillin”.

Question: And the “Bacterium isolation positive rate (%)” value ([4]; AMPR model, AMP 16.80 mg per mouse alone)?
Answer: The value was 100%.

Question: And the “Intraperitoneal colony count of animals” value ([4]; AMPR model, AMP 16.80 mg per mouse alone, one value per mouse Nos. 1-10, unit not given in Table 9 (Table 10 note: CFU/mL))?
Answer: Its value is 3.557 × 10^10 and 3.478 × 10^10 and 3.578 × 10^10 and 3.487 × 10^10 and 3.550 × 10^10 and 3.373 × 10^10 and 3.360 × 10^10 and 6.617 × 10^9 and 4.800 × 10^9 and 5.467 × 10^9.
